Entries after “also recorded” stand apart in the source; their conditions may differ.

Data set [1] deals with T1, KNCMA1 (Sus scrofa, UniProt O18866).
T1 construct: endogenous in cells; host or cells: primary pig aortic endothelial cells
As to the kind of experiment: Whole-cell current in primary pig aortic endothelial cells. It is filed as cell-based. The conditions noted are these: no BK beta chains. From the text: Pig aortic endothelial cells only express KNCMAI and not KNCMB1-4 (Papassotiriou et al). Thus, the absence of stimulation indicates a lack of effect on KNCMA1.

Data set [2] in a line: Tolerability on repeated dosing. Format: in vivo, mouse.
Data set [3] in a line: Intraocular pressure (IOP) after topical application. It is filed as in vivo, rats. To be noted: for IOP, mean: BL 11.18. On the procedure:
The effect of VSN16R on IOP was measured using the techniques described in the literature (Guo L. et aI, Investigative Ophthalmology & Visual Science, January 2005, Vol 46, No. 1 p 175-182; Guo L. et al, Investigative Ophthalmology & Visual Science, February 2006, Vol 47, No. 2 p 626-633; Cordeiro F. et al, PNAS, Aug. 14, 2007; Vol 104; No. 33, p 13444-13449; Cordeiro F. et al, PNAS, Sep. 7, 2004; Vol 101; No. 36, p 13352-13356).

Data set [4] deals with T2, BKCa channels formed by the exon-less alpha subunit (Homo sapiens, UniProt Q12791).
T2 construct: expressed in transfected cells; host or cells: HEK293
As to the kind of experiment: Whole-cell BKCa current in HEK293 cells expressing the alpha subunit alone. It is filed as cell-based. The conditions noted are these: 20 μM.

Data set [5] addresses T3, BK channel (Homo sapiens, UniProt Q12791). The data set is described as follows: Whole-cell patch clamp, BK current and membrane potential in EA.hy926 cells. Format: cell-based. Set-up: The human umbilical vein derived endothelial cell line, EA.hy926; endogenous in cells; host or cells: EA.hy926 human endothelial cell line. On the procedure:
(§1) The human umbilical vein derived endothelial cell line, EA.hy926 (Edgell et al., Proc Natl Acad Sci USA. 1983 June; 80(12): 3734-7) at passage >45 was grown in DMEM containing 10% FCS and 1% HAT (5 mM hypoxanthine, 20 μM aminopterin, 0.8 mM thymidine) and cells were maintained in an incubator at 37° C. in 5% CO2 atmosphere. Cells were plated on either 10 mm (for patch-clamp recordings) or 30 mm glass cover slips (for Ca^2+ measurements).
Membrane potential of EA.hy926 cells was recorded using the perforated patch clamp technique as described previously (Bondarenko et al, 2010, Br. J. Pharmacol. 161, 308-320). For membrane potential recordings from EA.hy926 cells the standard bath solution contained (in mM): 140 NaCl, 5 KCl, 1.2 MgCl2, 10 HEPES, 10 glucose, 2.4 CaCl2, patch pipettes were filled with a solution containing (in mmol/L): 140 KCl; 0.2 EGTA; 10 HEPES (pH adjusted to 7.2 using KOH). The resistance of the pipettes was 3-5 MΩ for whole cell and 6-8 MΩ for single channel recordings.
(In patch-clamp work, channel activity is measured electrically.)

Data set [6] concerns the target T3, BK channel. The data set is described as follows: Inside-out patch clamp (single channel) on EA.hy926 cells. It is filed as cell-based. Set-up: The human umbilical vein derived endothelial cell line, EA.hy926; endogenous in cells; host or cells: EA.hy926 human endothelial cell line. On the procedure: as §1
Single-channel recordings were obtained from excised inside-out membrane patches in symmetrical solutions. The pipettes were filled with (in mM) 140 KCl, 10 HEPES, 1 MgCl2, 5 EGTA, 4,931 CaCl2 with pH 7.2 by adding KOH (i.e. 10 μM free Ca^2+, G. Droogmans, Leuven, Belgium; ftp://ftp.cc.kuleuven.ac.be/pub/droodmans/cabuf.zip). Cells were perfused with a standard bath solution containing (in mM) 140 NaCl, 5 KCl, 1.2 MgCl2, 10 HEPES, 10 glucose, 2.4 CaCl2. Following gigaseal formation, bath solution was switched to the following (in mM) 140 KCl, 10 HEPES, 1 MgCl2, 5 EGTA and a desired free Ca^2+ concentration which was adjusted by adding different amounts of CaCl2 calculated by the program CaBuf. pH was adjusted to 7.2 by adding KOH. Membrane currents and potential were recorded using a List EPC7 amplifier (List, Germany) and pClamp (version 8.2, Axon Instruments) software.

The nature of data set [7]: Known efficacious oral dose (model not stated). It is filed as in vivo. The conditions noted are these: p.o.
In data set [8] the test system is C57BL/6.Fmr1 knockout mice. As to the kind of experiment: Contextual fear conditioning in Fmr1 knockout mice. It is filed as in vivo, mouse. The conditions noted are these: Fmr1 knockout mice, 2 mg/kg i.v. The protocol:
Animals: C57BL/6.J. Fmr1-K02 mice, which have a deletion of the promoter and exonl of the Fmr1 gene (Mientjes et al., 2006) and C57BL/6J wild type (WT) were originated from the Jackson laboratory (Ann Harbor, USA). Mice were housed in groups (4-6 per cage) and all animals were provided with ad libitum food and water unless otherwise stated. Mice were maintained on a 12 h light/12 h dark cycle (lights off 19:00 to 7:00) in a temperature-controlled environment (21±1° C.). Testing was conducted in the light phase. Mice were housed in commercial cages and experiments were performed in line with the United Kingdom Animals (Scientific procedures) Act 1986. All experiments were conducted with experimentors blind to genotype and drug treatment. Each experimental group contained 10 animals.
Drug Treatment: VSN16R was dissolved in saline for injection intravenously via a tail vein using 2 mg/kg a 30 g needle in a volume of 0.1 ml. Animals were inspected for differences in coat appearance, to detect whether any piloerection was present. The eye condition (runny eyes or porphyria, ptosis), gait appearance, tremor, tail tone, reactivity to handling was assessed to detect adverse behavioural effect.
Contextual fear conditioning: Animals are trained to expect an electroshock treatment within a defined environment, such that on subsequent presentation of the environment, freezing behaviours are induced. […]

Data set [9] concerns the target T1, KNCMA1. The data set is described as follows: Inside-out patch clamp of pig aortic endothelial cells. Format: cell-based.
Data set [10] in a line: Half-life by route. It is filed as in vivo.

T3 sequence (Q12791 1-1178 isoform Q12791-5): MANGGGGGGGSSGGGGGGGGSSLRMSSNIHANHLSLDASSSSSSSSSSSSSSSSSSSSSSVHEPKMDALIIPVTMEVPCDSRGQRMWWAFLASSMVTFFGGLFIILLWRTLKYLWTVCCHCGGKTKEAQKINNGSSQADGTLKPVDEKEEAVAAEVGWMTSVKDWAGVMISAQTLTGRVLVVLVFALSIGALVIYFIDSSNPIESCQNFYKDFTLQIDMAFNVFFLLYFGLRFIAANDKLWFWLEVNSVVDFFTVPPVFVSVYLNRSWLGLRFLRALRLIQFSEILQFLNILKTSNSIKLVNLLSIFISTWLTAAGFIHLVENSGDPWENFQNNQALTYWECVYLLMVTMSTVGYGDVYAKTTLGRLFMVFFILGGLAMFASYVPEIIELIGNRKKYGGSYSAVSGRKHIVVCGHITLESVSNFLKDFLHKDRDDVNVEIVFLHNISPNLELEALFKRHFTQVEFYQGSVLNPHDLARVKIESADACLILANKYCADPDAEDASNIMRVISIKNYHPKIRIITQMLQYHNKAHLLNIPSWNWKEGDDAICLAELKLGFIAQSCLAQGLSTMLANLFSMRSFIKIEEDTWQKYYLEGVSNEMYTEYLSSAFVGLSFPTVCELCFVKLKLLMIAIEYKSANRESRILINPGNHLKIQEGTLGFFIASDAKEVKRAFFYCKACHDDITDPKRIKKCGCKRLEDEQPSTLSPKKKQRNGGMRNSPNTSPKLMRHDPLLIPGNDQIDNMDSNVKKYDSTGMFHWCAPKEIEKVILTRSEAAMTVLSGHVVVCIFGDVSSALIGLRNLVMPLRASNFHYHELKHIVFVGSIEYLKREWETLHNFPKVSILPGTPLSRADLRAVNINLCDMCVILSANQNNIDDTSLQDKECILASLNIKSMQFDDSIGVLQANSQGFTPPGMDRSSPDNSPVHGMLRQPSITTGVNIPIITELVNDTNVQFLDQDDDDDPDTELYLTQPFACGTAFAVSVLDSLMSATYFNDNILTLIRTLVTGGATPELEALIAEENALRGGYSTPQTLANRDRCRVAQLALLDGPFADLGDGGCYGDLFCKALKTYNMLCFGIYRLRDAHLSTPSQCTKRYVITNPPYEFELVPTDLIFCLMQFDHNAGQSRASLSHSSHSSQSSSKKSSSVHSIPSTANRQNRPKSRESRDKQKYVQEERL
T3 sequence (Q86W47 whole entry partner): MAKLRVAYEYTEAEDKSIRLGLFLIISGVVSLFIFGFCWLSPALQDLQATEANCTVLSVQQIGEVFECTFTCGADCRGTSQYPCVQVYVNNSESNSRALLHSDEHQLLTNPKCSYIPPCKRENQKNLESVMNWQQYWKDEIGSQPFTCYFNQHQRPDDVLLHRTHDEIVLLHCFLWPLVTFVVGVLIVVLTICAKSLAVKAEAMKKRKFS
T2 sequence (Q12791 1-1178 isoform Q12791-5): as the sequence (Q12791 1-1178 isoform Q12791-5) above
T1 sequence (O18866 whole entry): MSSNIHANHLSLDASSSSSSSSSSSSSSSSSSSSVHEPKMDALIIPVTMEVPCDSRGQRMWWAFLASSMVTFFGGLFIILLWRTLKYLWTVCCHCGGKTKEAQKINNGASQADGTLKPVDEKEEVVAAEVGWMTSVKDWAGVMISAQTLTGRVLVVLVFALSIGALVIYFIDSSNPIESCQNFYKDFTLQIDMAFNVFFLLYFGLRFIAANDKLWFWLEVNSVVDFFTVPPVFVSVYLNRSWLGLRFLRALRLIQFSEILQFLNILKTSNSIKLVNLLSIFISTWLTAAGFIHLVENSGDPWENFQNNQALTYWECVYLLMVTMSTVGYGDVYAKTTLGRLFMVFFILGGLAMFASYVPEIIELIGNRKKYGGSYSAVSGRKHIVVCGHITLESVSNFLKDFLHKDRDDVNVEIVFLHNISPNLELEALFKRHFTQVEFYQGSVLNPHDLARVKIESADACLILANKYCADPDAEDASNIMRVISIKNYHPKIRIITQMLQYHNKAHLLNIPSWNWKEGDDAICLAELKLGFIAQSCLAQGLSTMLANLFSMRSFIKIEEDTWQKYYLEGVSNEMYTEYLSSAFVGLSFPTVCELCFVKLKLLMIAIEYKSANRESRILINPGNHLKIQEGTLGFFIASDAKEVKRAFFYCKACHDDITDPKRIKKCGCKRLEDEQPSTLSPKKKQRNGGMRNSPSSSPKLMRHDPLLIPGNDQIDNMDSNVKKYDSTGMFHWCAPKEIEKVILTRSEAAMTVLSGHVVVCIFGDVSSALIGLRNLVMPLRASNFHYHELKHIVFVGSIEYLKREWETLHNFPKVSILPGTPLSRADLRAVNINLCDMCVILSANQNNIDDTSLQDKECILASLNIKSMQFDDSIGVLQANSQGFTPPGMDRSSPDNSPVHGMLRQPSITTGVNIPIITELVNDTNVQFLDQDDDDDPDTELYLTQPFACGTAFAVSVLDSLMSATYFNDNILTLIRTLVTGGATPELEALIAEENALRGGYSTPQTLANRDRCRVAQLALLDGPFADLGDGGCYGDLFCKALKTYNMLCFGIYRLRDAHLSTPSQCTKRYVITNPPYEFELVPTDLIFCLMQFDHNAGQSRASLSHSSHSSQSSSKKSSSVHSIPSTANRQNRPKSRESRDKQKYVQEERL

As for `C[C@H](CO)NC(=O)c1cccc(/C=C\CCCC(=O)N(C)C)c1` [VSN16R], the effect on current result in [1] is given as “only a minor effect on current”. The tolerability entry in [2] (2 mg/kg i.v. over 2 weeks) was “well tolerated and no instances of toxicity were observed; also recorded: well tolerated”. In data set [2] (daily, p.o.), the tolerable dose is on record as at least 1000 mg/kg. Also, the “IOP, mean” value was 9.82 mmHg in data set [3] (0.5 h after VSN16R, p<0.05) and 10.79 mmHg in data set [3] (1 h after VSN16R, not significant). The “effect on intraocular pressure” value in [3] (topical to the eye, normal rats) is listed as “reduces intraocular pressure”. The “enhancement of BKCa current” value in data set [4] (HEK293, steps −40 mV to +70 mV, 200 nM calcium) was “not responsive; also recorded: does not act on BKCa channels formed by the exon-less alpha subunit; also recorded: did not display any enhancing effect on the current; also recorded: did not affect the BKCa current at any voltage; also recorded: did not enhance BKCa currents”. Moreover, the “activation voltage / voltage-dependence of activation of BKCa current” value in [4] (intracellular calcium 1 μM, 200 nM, nominally 0 M) is “did not shift the voltage-depence of activation; also recorded: did not affect the activation voltage of BKCa current”. For the same compound, the membrane potential entry in data set [5] (EA.hy926 cells) is on record as “induces sustained hyperpolarisation”. The “whole-cell BK current” value in data set [5] (human EA.hy926 cells, current blocked by paxilline) is recorded as “induces a BKca specific current; also recorded: induces currents that are sensitive to paxilline”. In addition, the “open probability of BKca channels” value in data set [6] (EA.hy926 cells) is given as “increases the open probability of BKca channels”. In addition, the “activation of the response of the channel” value in [6] (human EA.hy926 cells, calcium dependent) was “voltage and calcium dependent; also recorded: activation of the response of the channel”. This compound registered a known efficacy dose in [7] of at least 1 mg/kg. The “fear conditioning (freezing)” value in [8] is recorded as “inhibits the development of fear conditioning; also recorded: significantly (P<0.001) limited the exaggerated behaviour”. Further, in data set [9], the “response in inside-out patch” value was “does not give a response”. In addition, the t½ (as a rule, how long it takes for the measured level to halve) in data set [10] (intravenous route) is 6 min. In addition, the “half-life, oral route relative to intravenous route” value in data set [10] (oral vs intravenous) is 10 times.

(Values after patent US20180116983A1, “COMPOUNDS FOR TREATING DISORDERS ASSOCIATED WITH BK CHANNEL MODULATION” (Canbex Therapeutics Limited, priority 2015, published 2018).)
